The results in this text go back to patent US12691124B2, “Methods of controlling and improving brain health” (ICAHN SCHOOL OF MEDICINE AT MOUNT SINAI, priority 2019, dated 2026).

This experiment has as its system CK-p25 mice. Nature of the experiment: p25 (CK-p25) mouse model of Alzheimer's disease. The experiment is classed as in vivo. The following applies: 30 mg/kg i.p. daily. As to the method: Cdk^5tetO/+; Camk^2atTa/+ model of Alzheimer's disease uses the Camk2a promoter-driven tetracycline-controlled transactivator system (tTA) to overexpress human p25 fused to GFP in forebrain projection neurons after the removal of doxycycline from the diet. To avoid potential developmental effects of p25 expression, all mice were conceived and raised in the presence of doxycycline until 6-8 weeks of age.
Immunostaining. Mice were anesthetized with ketamine (120 mg/kg) and xylazine (24 mg/kg) and perfused transcardially with 10 ml PBS and 40 ml 4% paraformaldehyde (Electron Microscopy Sciences). Fixed brains were removed and dehydrated in 5%, 15% and 30% sucrose in PBS. Following dehydration, brains were frozen in Neg-50 (Thermo Scientific) on dry ice and stored at −80° C. until further processing. Brains were cut using a cryostat and 25-μm sections were mounted on Superfrost Plus microscope slides (Fisher Scientific). Slides were stored at −80° C. until staining. Slides were washed with PBS, permeabilized with PBS+0.2% Triton X-100 (PBST) and blocked with 2% normal goat serum in PBST for one hour at room temperature. Slides were incubated with primary antibodies (IBA1, 1:500, 019-19741, Waco; NeuN) in 2% normal goat serum in PBST overnight at 4° C. Slides were washed in PBST and incubated in Alexa Fluor-conjugated secondary antibodies (Alexa Fluor 488-, 546-, and 568- and 647-labeled goat anti-mouse, goat anti-rat, goat anti-chicken, goat anti-rabbit or donkey anti-goat IgGs (H+L); 1:500, Thermo Scientific) in 2% normal goat serum in PBST for 1 h at RT. Slides were washed and cover-slipped using Prolong Gold anti-fade with DAPI (Invitrogen) and dried overnight. Imaging was performed using a Zeiss LSM 780 Confocal Microscope (Zeiss, Oberkochen, DE). For z-stack images, 20-μm z-stack confocal images were acquired at 2-μm intervals, with 40×/1.3 oil objective at 0.6 or 1× zoom. For single plane images, 4.6 μm images were acquired at 20×/0.8 or 40×/1.3 objectives 0.6 or 1× zoom. Image processing was performed using Zen 2011 software (Zeiss).
Immunoblotting. Mice were anesthetized with CO2 followed by decapitation, and the region of interest was rapidly dissected and frozen in liquid nitrogen and stored at −80° C. until further processing. Samples were sonicated at 4° C. in 1% SDS solution supplemented with protease, Trichostatin A (500 ng/ml) and PhosStop phosphatase inhibitor (Roche, Switzerland), and boiled for ten minutes. The protein concentration was determined using a BCA protein assay kit (ThermoFisherScientific, USA) according to the manufacturer's instructions. Protein samples were diluted in equal volume of 2×LDS sample buffer (Invitrogen) and supplemented with DTT to a final concentration of 200 mM (Sigma).
Therefore to test the therapeutic effect of IBET858, p25 was overexpressed for two weeks in adult mice to initiate microgliosis and gene expression deficits before administration of daily IBET858 (30 mg/kg, i.p.) treatment for five weeks (FIG. 6A).
Gene expression levels for Casp3 are unaffected by 5 week IBET858 treatment in vivo. n=3, unpaired two-tailed t-test. […] To generate the p25 neurodegenerative mouse model, tetOCDK5R1/GFP were bred to CamK2a-tTA mice (“CK-p25”). Transgene overexpression was induced at 6 weeks of age by removing doxycycline from the diet. After two weeks, mice were daily injected with IBET858 (30 mg/kg, i.p.) or vehicle (FIG. 24C). Gene expression and protein levels of GFP reflecting transgene expression are unchanged.

Entries after “also recorded” stand apart in the source; their conditions may differ.

On to `CC(=O)N1c2ccc(-c3ccc(CN4CCCCC4)cc3)cc2[C@H](Nc2ccccc2)CC1C` (stereo in doubt) [IBET858], for which the “hippocampal inflammatory genes induced by P25 overexpression” value (five weeks) was “suppressed”. Besides, for the setting “five weeks, fear conditioning”, the “contextual and cued recall (freezing behavior)” value is recorded as “indistinguishable from controls”. For the same molecule, the “hippocampal Psd95 protein level compared to wild type controls” value (five weeks, untreated P25 42+/−10.7%) is on record as 106+/−11.9%. Also, the “hippocampal NeuN protein level compared to wild type controls” value (five weeks, untreated P25 49+/−9.3%) is given as 105+/−9.8%. Moreover, the “brain atrophy (loss)” value (five weeks, untreated p25 27%) stood at 17%. In addition, the “number of microglia in the hippocampus” value (five weeks, untreated p25 713.9+/−106) is on record as 332.9+/−12.6 Iba1+ cells per mm^2. The “neuronal density in the dentate gyrus” value (five weeks, untreated p25 2254+/−223.8) is 7880+/−587 NeuN+ cells per mm2. Further, the “expression of the p25 transgene” value (western blot / GFP) is given as “does not affect; also recorded: unchanged”. In addition, for the setting “hippocampus”, the “genes induced by P25 overexpression that are significantly suppressed” value is recorded as 365 genes and the “genes suppressed by P25 overexpression that are significantly induced” value worked out at 373 genes.
